In PMC11568214, “The impact of 9-azaglycophymine and phenylguanidine derivatives on the proliferation of various breast cancer cell lines in vitro and in vivo” (Scientific Reports, 2024):
pIC50: −log10 of the molar value.

What was measured:
HCC1937 = test: Pan-caspase activation, ApoStat staining, flow cytometry; type: cell-based, human; design: key: ↑: induction; ↓: inhibition; ↔: no effect; details: HCC1937, IC50 for 72 h
Procedure: (§1) Cells were seeded in 6-well plates and incubated for 24 h under standard culture conditions. […] For the analyses of pan-caspase activation, the cell suspension was centrifuged for 3 min at 800 rpm, and the cell pellet was stained with 100 µL of ApoStat working solution (1 µL of ApoStat and 5% (v/v) FCS in 100 µL of PBS). Cells were incubated for 30 min under standard culture conditions. The cell suspension was centrifuged for 3 min at 800 rpm, and the cell pellet was washed with 1 mL of fresh PBS. Finally, all samples were analyzed by using flow cytometry (FACSAria III, BD Biosciences, New Jersey, USA).

MCF-7 = test: as above; type: cell-based, human; design: key: ↑: induction; ↓: inhibition; ↔: no effect; details: MCF-7, IC50 for 72 h
Procedure: as §1

BT-474 = test: as above; type: cell-based, human; design: key: ↑: induction; ↓: inhibition; ↔: no effect; details: BT-474, IC50 for 72 h
Procedure: as §1

MDA-MB-468 = test: as above; type: cell-based, human; design: key: ↑: induction; ↓: inhibition; ↔: no effect; details: MDA-MB-468, IC50 for 72 h
Procedure: as §1

184B5 = test: CV cell viability assay on healthy breast cell line; type: cell-based; details: Homo sapiens, 72 h
Procedure: (§2) The cell lines were cultured in standard growth medium consisting of RPMI1640 medium supplemented with 10% (v/v) FCS, 1% (v/v) penicillin/streptomycin and 1% (v/v) glutamine[25]–[29]. Two additional cell lines were included in the study representing non-tumorigenic (“healthy”) breast cells, namely 184B5 and MCF10A. These cell lines were cultured using an Endopan 3 medium kit in accordance with the manufacturer’s instruction. For passaging and seeding, cells were treated as previously described. In brief, seeding was done in low density with 6 × 10^3 cells/100 µL in 96-well plates, and with 1.5 × 10^5 cells/1 mL in 6-well plates. […]
(§3) For initial testing of the cytotoxic effect of the available glycophymine compounds (Table S2), cells were treated with compound in three concentrations: 1, 10 and 50 µM. […] Subsequently, the cell viability was determined by using the crystal violet (CV) assay. […]
(§4) For CV assays, after 72 h treatment, the treatment medium was discarded from the 96-well plates, and the cells were washed using 50 µL of PBS. […] Finally, the absorbance was measured at 570 nm by using a SpectraMax M5 plate reader (Molecular Devices, California, USA) and at 670 nm as background wavelength. […] Based on that, IC50 values and standard deviations were calculated for each replicate individually.

MCF-10A = test: as above; type: cell-based; details: Homo sapiens, 72 h
Procedure: as §2, §3, §4

4T1 = test: Apoptosis analysis, AnnV/PI staining, flow cytometry; type: cell-based, mouse; details: 4T1, IC50 for 72 h; control cells 31%
Procedure: Cells were seeded in 6-well plates and incubated for 24 h under standard culture conditions. […] For apoptosis analyses, the cell suspension was centrifuged for 3 min at 800 rpm, and the cell pellet was stained by using 100 µL of AnnV/PI working solution (5 µL of AnnV, 2 µL of PI in 100 µL of PBS) for 15 min at RT and protected from light. The staining was terminated by the addition of 900 µL of annexin binding buffer. Finally, all samples were analyzed by using flow cytometry (FACSAria III, BD Biosciences, New Jersey, USA).

For `O=c1[nH]c(Nc2ccc([N+](=O)[O-])cc2)nc2ccccc12` [Compound 19, 4′-nitro-9-aza-glycophymine], the Pan-caspases (HCC1937) was “↑”, the Pan-caspases (MCF-7) was “↔” and the Pan-caspases (BT-474) was “↑”. For the same molecule, the Pan-caspases (MDA-MB-468) was “↔”, the pIC50 (184B5) was about 5.40 and the pIC50 (MCF-10A) was about 5.40. For the same molecule, the “percentage of apoptotic cells” value (4T1) was 69%.
